Reference: PubChem BioAssay AID1918993 (Molecular Pharmacology Branch, DTP, NCI, 2023)
pIC50: −log10 of the molar value.

Tested on: 233499-124-R-J3-PDC complex spheroid growth
Test: Anticancer human tumor 233499-124-R-J3-PDC patient-derived colon adenocarcinoma cell line growth inhibition [AhR]
Conditions: for pIC50: curve of first compound; for viability, T/C: stronger effect = lower value
Procedure, shortened: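 Spheroids combined tumor cells with HUVEC endothelial cells and human MSCs as stroma. AhR antagonists were paired with standard or investigational drugs, each dosed in half-log steps down from near clinical Cmax, or from 10 microM where Cmax was unknown.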

[1] = second compound 0.1 µM, first compound 0.0316 µM
[2] = second compound 0.1 µM, first compound 0.1 µM
[3] = second compound 0.1 µM, first compound 0.316 µM
[4] = second compound 0.1 µM, first compound 1 µM
[5] = second compound 0.1 µM, first compound 3.16 µM
[6] = second compound 0.1 µM, first compound 10 µM
[7] = second compound 0.316 µM, first compound 0.0316 µM
[8] = second compound 0.316 µM, first compound 0.1 µM
[9] = second compound 0.316 µM, first compound 0.316 µM
[10] = second compound 0.316 µM, first compound 1 µM
[11] = second compound 0.316 µM, first compound 3.16 µM
[12] = second compound 0.316 µM, first compound 10 µM
[13] = second compound 1 µM, first compound 0.0316 µM
[14] = second compound 1 µM, first compound 0.1 µM
[15] = second compound 1 µM, first compound 0.316 µM
[16] = second compound 1 µM, first compound 1 µM
[17] = second compound 1 µM, first compound 3.16 µM
[18] = second compound 1 µM, first compound 10 µM
[19] = second compound 3.16 µM, first compound 0.0316 µM
[20] = second compound 3.16 µM, first compound 0.1 µM
[21] = second compound 3.16 µM, first compound 0.316 µM
[22] = second compound 3.16 µM, first compound 1 µM
[23] = second compound 3.16 µM, first compound 3.16 µM
[24] = second compound 3.16 µM, first compound 10 µM
[25] = second compound 10 µM, first compound 0.0316 µM
[26] = second compound 10 µM, first compound 0.1 µM
[27] = second compound 10 µM, first compound 0.316 µM
[28] = second compound 10 µM, first compound 1 µM
[29] = second compound 10 µM, first compound 3.16 µM
[30] = second compound 10 µM, first compound 10 µM
[31] = second compound 0.1 µM, first compound 0.00316 µM
[32] = second compound 0.1 µM, first compound 0.01 µM
[33] = second compound 0.316 µM, first compound 0.00316 µM
[34] = second compound 0.316 µM, first compound 0.01 µM
[35] = second compound 1 µM, first compound 0.00316 µM
[36] = second compound 1 µM, first compound 0.01 µM
[37] = second compound 3.16 µM, first compound 0.00316 µM
[38] = second compound 3.16 µM, first compound 0.01 µM
[39] = second compound 10 µM, first compound 0.00316 µM
[40] = second compound 10 µM, first compound 0.01 µM
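Further: spheroids exposed to agents for seven days before reading.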

CC(C)c1c(-c2ccccc2)nc2c(C#N)c[nH]n2c1=O + Cc1ccccc1N=Nc1ccc(NC(=O)c2ccnn2C)c(C)c1
pIC50 (second compound 0.1 µM): < 5.00 | pIC50 (second compound 0.316 µM): < 5.00 | pIC50 (second compound 1 µM): < 5.00 | pIC50 (second compound 3.16 µM): < 5.00 | pIC50 (second compound 10 µM): < 5.00 | viability, T/C [1]: 110% | viability, T/C [2]: 98.9% | viability, T/C [3]: 101% | viability, T/C [4]: 112% | viability, T/C [5]: 95.2% | viability, T/C [6]: 105% | viability, T/C [7]: 100% | viability, T/C [8]: 108% | viability, T/C [9]: 92.3% | viability, T/C [10]: 104% | viability, T/C [11]: 118% | viability, T/C [12]: 107% | viability, T/C [13]: 110% | viability, T/C [14]: 110% | viability, T/C [15]: 98.7% | viability, T/C [16]: 102% | viability, T/C [17]: 106% | viability, T/C [18]: 106% | viability, T/C [19]: 102% | viability, T/C [20]: 99.5% | viability, T/C [21]: 103% | viability, T/C [22]: 110% | viability, T/C [23]: 108% | viability, T/C [24]: 105% | viability, T/C [25]: 103% | viability, T/C [26]: 102% | viability, T/C [27]: 107% | viability, T/C [28]: 101% | viability, T/C [29]: 89% | viability, T/C [30]: 85.3%

CC1COCCN1c1cc(-c2ccnn2C)c2ccnc(-c3ccn[nH]3)c2n1 (stereo not given) + Cc1ccccc1N=Nc1ccc(NC(=O)c2ccnn2C)c(C)c1
pIC50 (second compound 0.1 µM): < 6.00 | pIC50 (second compound 0.316 µM): < 6.00 | pIC50 (second compound 1 µM): 6.01 | pIC50 (second compound 3.16 µM): < 6.00 | pIC50 (second compound 10 µM): < 6.00 | viability, T/C [31]: 91.3% | viability, T/C [32]: 98.8% | viability, T/C [1]: 105% | viability, T/C [2]: 93.9% | viability, T/C [3]: 68.2% | viability, T/C [4]: 55.1% | viability, T/C [33]: 99.4% | viability, T/C [34]: 93.9% | viability, T/C [7]: 92.2% | viability, T/C [8]: 92.3% | viability, T/C [9]: 75% | viability, T/C [10]: 50.7% | viability, T/C [35]: 87.1% | viability, T/C [36]: 97.1% | viability, T/C [13]: 85.6% | viability, T/C [14]: 91.8% | viability, T/C [15]: 81.6% | viability, T/C [16]: 49.3% | viability, T/C [37]: 91.8% | viability, T/C [38]: 103% | viability, T/C [19]: 85% | viability, T/C [20]: 74% | viability, T/C [21]: 57.2% | viability, T/C [22]: 58% | viability, T/C [39]: 103% | viability, T/C [40]: 99.3% | viability, T/C [25]: 101% | viability, T/C [26]: 80.5% | viability, T/C [27]: 74.5% | viability, T/C [28]: 58.7%

COc1ccc([C@@H](O)c2cc(-c3ncnc4cc(N5CCOCC5)ccc34)c(F)cc2Cl)nn1 + Cc1ccccc1N=Nc1ccc(NC(=O)c2ccnn2C)c(C)c1
pIC50 (second compound 0.1 µM): < 5.00 | pIC50 (second compound 0.316 µM): < 5.00 | pIC50 (second compound 1 µM): < 5.00 | pIC50 (second compound 3.16 µM): < 5.00 | pIC50 (second compound 10 µM): < 5.00 | viability, T/C [1]: 90.3% | viability, T/C [2]: 98.9% | viability, T/C [3]: 96.8% | viability, T/C [4]: 104% | viability, T/C [5]: 101% | viability, T/C [6]: 89.2% | viability, T/C [7]: 97.3% | viability, T/C [8]: 101% | viability, T/C [9]: 86.3% | viability, T/C [10]: 102% | viability, T/C [11]: 92% | viability, T/C [12]: 63.6% | viability, T/C [13]: 104% | viability, T/C [14]: 98.4% | viability, T/C [15]: 102% | viability, T/C [16]: 95.7% | viability, T/C [17]: 85.5% | viability, T/C [18]: 90.2% | viability, T/C [19]: 99.5% | viability, T/C [20]: 101% | viability, T/C [21]: 93.5% | viability, T/C [22]: 97.8% | viability, T/C [23]: 92.2% | viability, T/C [24]: 76.3% | viability, T/C [25]: 90.5% | viability, T/C [26]: 90.3% | viability, T/C [27]: 85.6% | viability, T/C [28]: 94.6% | viability, T/C [29]: 91.4% | viability, T/C [30]: 60.6%

COc1cccc2c1C(=O)c1c(O)c3c(c(O)c1C2=O)CC(O)(C(=O)CO)CC3OC1CC(N)C(O)C(C)O1 (stereo not given) + Cc1cncc(-c2nc(NCCc3c[nH]c4ccccc34)c3ncn(C(C)C)c3n2)c1
pIC50 (second compound 0.1 µM): 5.07 | pIC50 (second compound 0.316 µM): < 5.00 | pIC50 (second compound 1 µM): 5.56 | pIC50 (second compound 3.16 µM): 5.87 | pIC50 (second compound 10 µM): > 7.50 | viability, T/C [1]: 102% | viability, T/C [2]: 84.1% | viability, T/C [3]: 80.3% | viability, T/C [4]: 83.2% | viability, T/C [5]: 49.3% | viability, T/C [6]: 51.2% | viability, T/C [7]: 73.8% | viability, T/C [8]: 90.8% | viability, T/C [9]: 79.8% | viability, T/C [10]: 78% | viability, T/C [11]: 61.3% | viability, T/C [12]: 50.6% | viability, T/C [13]: 87.4% | viability, T/C [14]: 72.8% | viability, T/C [15]: 76.9% | viability, T/C [16]: 71% | viability, T/C [17]: 46.9% | viability, T/C [18]: 32.5% | viability, T/C [19]: 81.8% | viability, T/C [20]: 87.1% | viability, T/C [21]: 77.5% | viability, T/C [22]: 60.8% | viability, T/C [23]: 21.3% | viability, T/C [24]: 4.5% | viability, T/C [25]: 7.64% | viability, T/C [26]: 13.7% | viability, T/C [27]: 41% | viability, T/C [28]: 13.4% | viability, T/C [29]: 14.4% | viability, T/C [30]: 0.5%

Nc1ncn(C2CC(O)C(CO)O2)c(=O)n1 (stereo not given) + Cc1cncc(-c2nc(NCCc3c[nH]c4ccccc34)c3ncn(C(C)C)c3n2)c1
pIC50 (second compound 0.1 µM): < 6.00 | pIC50 (second compound 0.316 µM): < 6.00 | pIC50 (second compound 1 µM): < 6.00 | pIC50 (second compound 3.16 µM): < 6.00 | pIC50 (second compound 10 µM): > 8.50 | viability, T/C [31]: 97.4% | viability, T/C [32]: 85% | viability, T/C [1]: 91.3% | viability, T/C [2]: 88% | viability, T/C [3]: 87.8% | viability, T/C [4]: 81.2% | viability, T/C [33]: 88.8% | viability, T/C [34]: 89.8% | viability, T/C [7]: 84.6% | viability, T/C [8]: 84% | viability, T/C [9]: 87.4% | viability, T/C [10]: 96.9% | viability, T/C [35]: 82.9% | viability, T/C [36]: 83.9% | viability, T/C [13]: 86.8% | viability, T/C [14]: 81% | viability, T/C [15]: 82.9% | viability, T/C [16]: 93.4% | viability, T/C [37]: 82.7% | viability, T/C [38]: 76.2% | viability, T/C [19]: 82.4% | viability, T/C [20]: 81% | viability, T/C [21]: 76.5% | viability, T/C [22]: 88.6% | viability, T/C [39]: 16.3% | viability, T/C [40]: 26.8% | viability, T/C [25]: 36.8% | viability, T/C [26]: 44.8% | viability, T/C [27]: 21.5% | viability, T/C [28]: 26.4%
